Experimental data as given in ChEMBL document CHEMBL5608181, “Discovery of indazole inhibitors for heat shock protein 90 as anti-cancer agents” (Eur J Med Chem, 2024).
Activity calls are given as the source filed them. The calls are words filed in the database; no cut-off is given here.

Assays:
Homo sapiens = organism: Homo sapiens; experiment: Inhibition of N-terminal HSP90 (unknown origin) at 10 uM by AlphaLISA assay
CYP3A4 = CYP3A4 (Homo sapiens, UniProt P08684); experiment: Inhibition of CYP3A4 (unknown origin) at 10 uM relative to control; assay type: ADME
Chain of CYP3A4 (P08684 whole entry): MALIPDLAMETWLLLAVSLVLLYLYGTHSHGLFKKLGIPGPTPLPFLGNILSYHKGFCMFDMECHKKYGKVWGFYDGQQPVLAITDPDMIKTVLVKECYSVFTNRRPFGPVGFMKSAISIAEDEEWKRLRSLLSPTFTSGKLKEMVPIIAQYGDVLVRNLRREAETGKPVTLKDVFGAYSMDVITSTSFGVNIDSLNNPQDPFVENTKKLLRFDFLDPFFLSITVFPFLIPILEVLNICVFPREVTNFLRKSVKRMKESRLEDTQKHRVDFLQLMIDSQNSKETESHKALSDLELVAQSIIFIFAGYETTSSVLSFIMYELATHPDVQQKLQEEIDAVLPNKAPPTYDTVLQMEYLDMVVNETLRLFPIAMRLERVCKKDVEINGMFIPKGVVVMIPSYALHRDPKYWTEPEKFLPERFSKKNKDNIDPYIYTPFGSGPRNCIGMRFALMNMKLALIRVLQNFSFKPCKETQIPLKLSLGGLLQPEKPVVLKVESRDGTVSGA

CYP2C19 = CYP2C19 (Homo sapiens, UniProt P33261); experiment: Inhibition of CYP2C19 (unknown origin) at 10 uM relative to control; assay type: ADME
Chain of CYP2C19 (P33261 whole entry): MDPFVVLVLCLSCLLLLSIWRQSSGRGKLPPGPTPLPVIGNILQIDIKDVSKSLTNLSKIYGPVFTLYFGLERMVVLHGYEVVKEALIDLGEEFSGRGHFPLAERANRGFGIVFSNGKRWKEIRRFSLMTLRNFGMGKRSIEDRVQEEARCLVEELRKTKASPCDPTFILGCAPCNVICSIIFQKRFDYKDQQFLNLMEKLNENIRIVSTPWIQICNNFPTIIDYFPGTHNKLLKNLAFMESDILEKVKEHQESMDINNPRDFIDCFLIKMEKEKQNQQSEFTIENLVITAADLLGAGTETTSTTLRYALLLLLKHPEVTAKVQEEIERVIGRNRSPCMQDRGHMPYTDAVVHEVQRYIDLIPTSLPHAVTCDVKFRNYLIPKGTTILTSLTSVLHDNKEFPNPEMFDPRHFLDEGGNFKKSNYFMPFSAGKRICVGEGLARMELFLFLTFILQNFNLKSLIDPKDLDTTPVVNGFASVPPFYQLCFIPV

CYP2C9 = CYP2C9 (Homo sapiens, UniProt P11712); experiment: Inhibition of CYP2C9 (unknown origin) at 10 uM relative to control; assay type: ADME
Chain of CYP2C9 (P11712 whole entry): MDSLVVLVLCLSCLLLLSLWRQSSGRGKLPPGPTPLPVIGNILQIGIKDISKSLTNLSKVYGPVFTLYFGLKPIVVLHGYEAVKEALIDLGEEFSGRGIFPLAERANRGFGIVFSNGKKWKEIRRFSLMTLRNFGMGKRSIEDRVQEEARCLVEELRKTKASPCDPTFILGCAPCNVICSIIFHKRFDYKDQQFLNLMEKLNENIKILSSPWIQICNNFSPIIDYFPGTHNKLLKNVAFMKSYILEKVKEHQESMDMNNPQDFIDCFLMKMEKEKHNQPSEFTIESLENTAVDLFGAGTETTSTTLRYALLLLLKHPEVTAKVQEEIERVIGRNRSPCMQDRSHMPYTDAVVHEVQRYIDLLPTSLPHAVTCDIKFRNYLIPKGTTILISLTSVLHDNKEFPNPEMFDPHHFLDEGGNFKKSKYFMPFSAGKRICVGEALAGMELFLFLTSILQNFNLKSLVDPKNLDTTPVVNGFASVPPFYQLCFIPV

CYP1A2 = biological target: T1, CYP1A2 (Homo sapiens, UniProt P05177); experiment: Inhibition of CYP1A2 (unknown origin) at 10 uM relative to control; assay type: ADME
T1 sequence (P05177 whole entry): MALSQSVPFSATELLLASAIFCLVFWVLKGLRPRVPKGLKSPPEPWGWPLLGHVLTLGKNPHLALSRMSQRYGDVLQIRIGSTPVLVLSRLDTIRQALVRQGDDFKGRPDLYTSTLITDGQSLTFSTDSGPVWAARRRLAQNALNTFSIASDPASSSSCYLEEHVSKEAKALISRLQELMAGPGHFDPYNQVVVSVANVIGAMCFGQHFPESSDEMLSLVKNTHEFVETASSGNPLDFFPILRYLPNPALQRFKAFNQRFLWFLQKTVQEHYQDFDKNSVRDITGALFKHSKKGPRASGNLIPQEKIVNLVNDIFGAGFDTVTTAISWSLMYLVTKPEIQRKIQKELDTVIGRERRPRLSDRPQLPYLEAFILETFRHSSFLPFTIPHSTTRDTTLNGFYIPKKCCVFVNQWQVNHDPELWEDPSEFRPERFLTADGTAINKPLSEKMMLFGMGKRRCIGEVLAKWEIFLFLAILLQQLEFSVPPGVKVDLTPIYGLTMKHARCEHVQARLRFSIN

BT-474 = experiment: Antiproliferative activity against human BT-474 cells assessed as inhibition of cell viability at 10 uM measured after 72 hrs by CellTiter 96 Aqueous One Solution Cell Proliferation Assay; assay type: functional, cell-based
JIMT-1 = experiment: Antiproliferative activity against human JIMT-1 cells assessed as inhibition of cell viability at 10 uM measured after 72 hrs by CellTiter 96 Aqueous One Solution Cell Proliferation Assay; assay type: functional, cell-based
HEK293 = experiment: Cytotoxicity against HEK293 cells assessed as reduction in cell viability at 10 uM measured after 72 hrs by CellTiter 96 Aqueous One Solution Cell Proliferation Assay; assay type: toxicity, cell-based; conditions: human, hek293, 72 h

Q: For `CC(C)c1cc(-c2n[nH]c(=O)n2-c2ccc3c(ccn3C)c2)c(O)cc1O`, which inhibition (Homo sapiens) is on record?
A: The inhibition was “Active”.

Q: Which results are given for `CC(=O)N1CCN(c2ccc(OCC3COC(Cn4ccnc4)(c4ccc(Cl)cc4Cl)O3)cc2)CC1` (stereo not drawn) [KETOCONAZOLE]?
A: inhibition at 10 µM (CYP3A4): 32%; inhibition at 10 µM (CYP2C19): > 100%; inhibition at 10 µM (CYP2C9): 96.8%; inhibition at 10 µM (CYP1A2): > 100%

Q: For `COCCn1cc(NC(=O)c2ccc3c(c2OC)C=CC(C)(C)O3)c2cccnc21`, which Activity (BT-474) is on record?
A: The Activity was “Active”.

Q: What about the Activity (JIMT-1) of the same compound?
A: The Activity was “Active”.

Q: What about the Activity (HEK293) of the same compound?
A: The Activity was “Toxic”.
